This note sets out measurements from patent US9340590B2 (priority 2011, dated 2016).

Where two headings read alike, the source gives them in different places. Positions of bridges follow the written chain, without caps; N, C: chain ends. Non-standard residues stand in square brackets, D forms with d. Residues, ends and D or L forms follow the SMILES beside them. *: point of attachment. Phg = N[C@H](C(=O)O)c1ccccc1; Pent4ynoyl = C#CCCC(=O)*; Nva = CCC[C@H](N)C(=O)O; Abu = CC[C@H](N)C(=O)O

What all share (assay): cell-based
For one assay, the target named is hNav1.3 (Homo sapiens, UniProt Q9NY46). Particulars: IonWorks Quattro, read-out: IWQ Use Nav1.3.
In another assay the target is hNav1.7 (Homo sapiens, UniProt Q15858). The class given is cell-based. Particulars: IonWorks Quattro, read-out: IWQ Use Nav1.7. In general terms: The patch-clamp technique gives a direct electrical read-out from membranes.
Chain of hNav1.7 (Q15858 whole entry, looked up): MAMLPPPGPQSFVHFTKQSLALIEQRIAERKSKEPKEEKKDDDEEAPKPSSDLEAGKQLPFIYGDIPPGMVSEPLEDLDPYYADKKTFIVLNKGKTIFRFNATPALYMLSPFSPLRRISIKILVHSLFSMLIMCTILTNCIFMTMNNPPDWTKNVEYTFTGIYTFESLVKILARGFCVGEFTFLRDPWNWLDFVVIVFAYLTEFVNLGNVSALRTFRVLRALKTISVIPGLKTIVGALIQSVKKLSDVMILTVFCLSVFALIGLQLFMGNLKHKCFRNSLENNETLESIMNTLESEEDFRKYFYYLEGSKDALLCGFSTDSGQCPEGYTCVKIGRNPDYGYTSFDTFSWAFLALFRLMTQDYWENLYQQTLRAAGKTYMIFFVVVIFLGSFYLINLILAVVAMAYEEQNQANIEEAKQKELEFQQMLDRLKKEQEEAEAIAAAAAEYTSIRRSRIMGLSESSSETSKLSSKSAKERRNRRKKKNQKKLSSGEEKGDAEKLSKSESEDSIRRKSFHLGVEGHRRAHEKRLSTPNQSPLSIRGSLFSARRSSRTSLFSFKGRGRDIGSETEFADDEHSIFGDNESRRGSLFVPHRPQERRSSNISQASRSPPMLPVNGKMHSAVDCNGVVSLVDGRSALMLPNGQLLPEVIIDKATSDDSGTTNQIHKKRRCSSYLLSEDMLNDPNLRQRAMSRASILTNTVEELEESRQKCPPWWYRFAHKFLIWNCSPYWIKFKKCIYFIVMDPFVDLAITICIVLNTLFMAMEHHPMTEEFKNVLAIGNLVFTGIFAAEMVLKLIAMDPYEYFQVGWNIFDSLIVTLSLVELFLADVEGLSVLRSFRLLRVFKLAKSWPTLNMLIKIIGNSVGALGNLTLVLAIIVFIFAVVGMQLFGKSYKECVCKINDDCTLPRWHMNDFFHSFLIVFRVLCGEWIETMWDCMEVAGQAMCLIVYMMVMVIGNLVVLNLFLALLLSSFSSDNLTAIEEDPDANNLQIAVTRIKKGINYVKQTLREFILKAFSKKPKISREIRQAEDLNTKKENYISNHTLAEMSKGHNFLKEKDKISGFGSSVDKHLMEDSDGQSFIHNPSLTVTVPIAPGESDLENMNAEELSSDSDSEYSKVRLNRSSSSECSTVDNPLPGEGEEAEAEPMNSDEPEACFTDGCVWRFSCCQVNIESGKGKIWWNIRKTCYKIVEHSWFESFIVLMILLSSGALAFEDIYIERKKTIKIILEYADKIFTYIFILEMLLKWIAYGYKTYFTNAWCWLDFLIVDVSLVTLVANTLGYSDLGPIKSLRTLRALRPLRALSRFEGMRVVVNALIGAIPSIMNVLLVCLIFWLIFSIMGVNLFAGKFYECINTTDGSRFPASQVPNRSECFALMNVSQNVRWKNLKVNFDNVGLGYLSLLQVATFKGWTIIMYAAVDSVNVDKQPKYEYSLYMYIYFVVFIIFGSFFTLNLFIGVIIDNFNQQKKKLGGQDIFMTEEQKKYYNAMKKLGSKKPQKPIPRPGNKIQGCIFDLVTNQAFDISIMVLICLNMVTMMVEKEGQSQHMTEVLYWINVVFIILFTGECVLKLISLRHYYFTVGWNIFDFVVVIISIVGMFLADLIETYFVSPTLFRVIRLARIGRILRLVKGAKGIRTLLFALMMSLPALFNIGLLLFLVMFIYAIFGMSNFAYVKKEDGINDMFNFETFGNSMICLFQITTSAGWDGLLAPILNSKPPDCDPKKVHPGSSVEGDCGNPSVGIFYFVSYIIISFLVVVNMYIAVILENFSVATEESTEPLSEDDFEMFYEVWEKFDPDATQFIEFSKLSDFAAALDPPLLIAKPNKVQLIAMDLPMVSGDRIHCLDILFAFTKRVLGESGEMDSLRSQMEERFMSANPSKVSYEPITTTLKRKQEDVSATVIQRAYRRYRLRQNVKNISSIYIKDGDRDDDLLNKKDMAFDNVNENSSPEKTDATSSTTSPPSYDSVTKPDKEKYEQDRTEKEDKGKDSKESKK
The next assay concerns the target hNav1.5 (Homo sapiens, UniProt Q14524).
Setting [1] is: clamped to −110 mV, depolarized to −10 mV, 5 min after compound, n=2.
The mark [2] stands for this setting: IonWorks Quattro, use-dependent block, hNav1.5, read-out: IWQ Use Nav1.5.

Chain of hNav1.5 (Q14524 whole entry, looked up): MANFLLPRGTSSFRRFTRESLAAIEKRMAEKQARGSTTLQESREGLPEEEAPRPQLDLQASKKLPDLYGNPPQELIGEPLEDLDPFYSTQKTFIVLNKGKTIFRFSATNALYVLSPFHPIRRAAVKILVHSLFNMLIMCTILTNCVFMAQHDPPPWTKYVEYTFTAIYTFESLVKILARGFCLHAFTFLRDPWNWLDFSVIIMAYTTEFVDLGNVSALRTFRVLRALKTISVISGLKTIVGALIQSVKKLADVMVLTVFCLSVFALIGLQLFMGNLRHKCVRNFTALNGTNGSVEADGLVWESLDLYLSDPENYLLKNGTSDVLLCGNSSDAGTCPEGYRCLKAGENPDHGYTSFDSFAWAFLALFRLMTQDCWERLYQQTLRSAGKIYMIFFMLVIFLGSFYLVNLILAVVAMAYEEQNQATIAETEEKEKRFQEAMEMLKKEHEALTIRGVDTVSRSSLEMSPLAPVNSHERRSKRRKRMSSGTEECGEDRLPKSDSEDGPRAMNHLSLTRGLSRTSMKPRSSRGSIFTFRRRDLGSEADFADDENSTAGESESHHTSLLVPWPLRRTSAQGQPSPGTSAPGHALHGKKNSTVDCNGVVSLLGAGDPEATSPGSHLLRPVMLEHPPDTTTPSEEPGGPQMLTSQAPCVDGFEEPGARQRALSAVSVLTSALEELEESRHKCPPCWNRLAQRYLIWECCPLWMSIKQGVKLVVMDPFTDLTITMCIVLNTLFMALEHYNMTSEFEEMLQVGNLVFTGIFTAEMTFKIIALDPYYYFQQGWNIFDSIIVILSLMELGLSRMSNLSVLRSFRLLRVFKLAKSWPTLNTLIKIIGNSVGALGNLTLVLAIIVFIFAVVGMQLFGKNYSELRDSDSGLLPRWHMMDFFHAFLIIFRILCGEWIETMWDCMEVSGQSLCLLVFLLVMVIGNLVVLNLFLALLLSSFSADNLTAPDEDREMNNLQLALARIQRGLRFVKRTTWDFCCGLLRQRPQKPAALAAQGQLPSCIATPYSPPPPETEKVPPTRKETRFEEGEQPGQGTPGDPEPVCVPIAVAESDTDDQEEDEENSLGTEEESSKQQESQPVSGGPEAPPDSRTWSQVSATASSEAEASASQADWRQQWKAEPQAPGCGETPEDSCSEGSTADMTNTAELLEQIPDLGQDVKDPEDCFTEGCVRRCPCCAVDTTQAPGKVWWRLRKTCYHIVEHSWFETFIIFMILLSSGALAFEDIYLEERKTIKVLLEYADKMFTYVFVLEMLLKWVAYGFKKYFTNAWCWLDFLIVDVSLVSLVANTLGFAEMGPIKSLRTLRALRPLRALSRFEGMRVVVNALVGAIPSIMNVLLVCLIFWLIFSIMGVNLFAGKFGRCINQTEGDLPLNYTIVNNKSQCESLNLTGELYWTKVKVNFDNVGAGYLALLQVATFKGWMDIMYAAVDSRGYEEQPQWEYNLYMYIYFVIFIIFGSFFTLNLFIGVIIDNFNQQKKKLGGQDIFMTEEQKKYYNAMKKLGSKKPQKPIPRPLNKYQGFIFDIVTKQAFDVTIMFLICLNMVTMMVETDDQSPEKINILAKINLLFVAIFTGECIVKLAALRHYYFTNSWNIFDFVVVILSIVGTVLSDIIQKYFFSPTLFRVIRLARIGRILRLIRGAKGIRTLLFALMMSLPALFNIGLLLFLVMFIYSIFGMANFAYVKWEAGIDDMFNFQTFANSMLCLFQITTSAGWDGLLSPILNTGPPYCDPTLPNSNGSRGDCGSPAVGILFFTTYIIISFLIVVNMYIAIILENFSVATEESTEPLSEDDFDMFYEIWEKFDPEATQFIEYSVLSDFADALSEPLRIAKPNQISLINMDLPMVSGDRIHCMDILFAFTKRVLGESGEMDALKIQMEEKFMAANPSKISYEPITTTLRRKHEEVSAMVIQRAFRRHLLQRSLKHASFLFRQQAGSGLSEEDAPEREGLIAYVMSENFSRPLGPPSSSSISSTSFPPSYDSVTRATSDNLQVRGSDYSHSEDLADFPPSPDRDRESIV

`CC[C@H](C)[C@@H]1NC(=O)[C@@H]2CSSC[C@@H]3NC(=O)[C@H](C(C)C)NC(=O)[C@H](CC(C)C)NC(=O)[C@H](CC(N)=O)NC(=O)[C@@H]4CCCN4C(=O)[C@H](CCCNC(=N)N)NC(=O)[C@H](CSSC[C@H](NC(=O)[C@@H](N)CC(=O)O)C(=O)N[C@@H](CC(C)C)C(=O)NCC(=O)N[C@@H](Cc4ccccc4)C(=O)N[C@@H](Cc4cn(C)c5ccccc45)C(=O)N[C@@H](CCCNC(=N)N)C(=O)N[C@@H](CCCCN)C(=O)N2)NC(=O)[C@H](CSSC[C@@H](C(=O)N[C@@H](CCCCN)C(=O)N[C@@H](Cc2ccc(O)cc2)C(=O)N[C@H](C(=O)N[C@@H](Cc2ccccc2)C(N)=O)C(C)C)NC(=O)[C@H](Cc2c[nH]c4ccccc24)NC(=O)[C@H](CCCCN)NC(=O)[C@H](Cc2c[nH]cn2)NC(=O)[C@H]([C@@H](C)O)NC(=O)[C@H](CCCNC(=N)N)NC(=O)[C@H](CO)NC3=O)NC(=O)[C@H](CCCCN)NC(=O)[C@H](CC(=O)O)NC(=O)[C@H](CC(N)=O)NC(=O)[C@H](CC(=O)O)NC(=O)[C@@H]2CCCN2C1=O` [SEQ ID NO: 292]: the IC50 at hNav1.3 (setting [1]) was 30 nM; on hNav1.7 (setting [1]), 40 nM; at hNav1.5 (IonWorks Quattro, clamped to −110 mV, depolarized to −10 mV, 5 min after compound, n=2, read-out: IWQ Use Nav1.5), 5660 nM.
Consider `CCC[C@@H]1NC(=O)CNC(=O)[C@H](CC(C)C)NC(=O)[C@@H](NC(=O)[C@@H](N)CC(=O)O)CSSC[C@@H]2NC(=O)[C@@H]3CSSC[C@@H](C(=O)N[C@@H](CCCCN)C(=O)N[C@@H](Cc4ccc(O)cc4)C(=O)N[C@H](C(=O)N[C@@H](Cc4ccccc4)C(N)=O)C(C)C)NC(=O)[C@H](Cc4c[nH]c5ccccc45)NC(=O)[C@H](CCC(=O)O)NC(=O)[C@H](Cc4c[nH]cn4)NC(=O)[C@H]([C@@H](C)O)NC(=O)[C@H](CCCNC(=N)N)NC(=O)[C@H](CO)NC(=O)[C@H](CSSC[C@H](NC(=O)[C@H](CCCCN)NC(=O)[C@H](CCCNC(=N)N)NC(=O)[C@H](CC(C)C)NC1=O)C(=O)N[C@@H]([C@@H](C)CC)C(=O)N1CCC[C@H]1C(=O)N[C@@H](CC(=O)O)C(=O)N[C@@H](CC(N)=O)C(=O)N[C@@H](CC(=O)O)C(=O)N[C@@H](CCCCN)C(=O)N3)NC(=O)[C@H](C(C)C)NC(=O)[C@H](CC(C)C)NC(=O)[C@H](CC(N)=O)NC(=O)[C@@H]1CCCN1C(=O)[C@H](CCCNC(=N)N)NC2=O` [compound 708] (H-DCLG[Nva]LRKCIPDNDKCCRPNLVCSRTHEWCKYVF-NH2; disulfide 2-17, 9-23, 16-30), for which the IC50 turned out to be 2800 nM on hNav1.3 (use-dependent protocol, hNav1.3); 370 nM on hNav1.7 (use-dependent protocol, hNav1.7); 31000 nM at hNav1.5 (IonWorks Quattro, use-dependent protocol, hNav1.5, read-out: IWQ Use Nav1.5).
As to `CC[C@H](C)[C@@H]1NC(=O)[C@@H]2CSSC[C@@H]3NC(=O)[C@H](C(C)C)NC(=O)[C@H](CC(C)C)NC(=O)[C@H](CC(N)=O)NC(=O)[C@@H]4CCCN4C(=O)[C@H](CCCNC(=N)N)NC(=O)[C@H](CSSC[C@H](NC(=O)[C@@H](N)CC(=O)O)C(=O)N[C@@H](CC(C)C)C(=O)NCC(=O)N[C@@H](Cc4cccc5ccccc45)C(=O)N[C@@H](CCSC)C(=O)N[C@@H](CCCNC(=N)N)C(=O)N[C@@H](CCCCN)C(=O)N2)NC(=O)[C@H](CSSC[C@@H](C(=O)N[C@@H](CCCCN)C(=O)N[C@@H](Cc2ccc(O)cc2)C(=O)N[C@H](C(=O)N[C@@H](Cc2ccccc2)C(N)=O)C(C)C)NC(=O)[C@H](Cc2c[nH]c4ccccc24)NC(=O)[C@H](CCCCN)NC(=O)[C@H](Cc2c[nH]cn2)NC(=O)[C@H]([C@@H](C)O)NC(=O)[C@H](CCCNC(=N)N)NC(=O)[C@H](CO)NC3=O)NC(=O)[C@H](CCCCN)NC(=O)[C@H](CC(=O)O)NC(=O)[C@H](CC(N)=O)NC(=O)[C@H](CC(=O)O)NC(=O)[C@@H]2CCCN2C1=O` [SEQ ID NO: 105], the IC50 at hNav1.3 (setting [1]) was determined as 100 nM; on hNav1.7 (setting [1]), 80 nM; against hNav1.5 (IWQ Use Nav1.5), 13400 nM.
As for `CC[C@H](C)[C@@H]1NC(=O)[C@@H]2CSSC[C@@H]3NC(=O)[C@H](C(C)C)NC(=O)[C@H](CC(C)C)NC(=O)[C@H](CC(N)=O)NC(=O)[C@@H]4CCCN4C(=O)[C@H](CCCNC(=N)N)NC(=O)[C@H](CSSC[C@H](NC(=O)[C@@H](N)CC(=O)O)C(=O)N[C@@H](CC(C)C)C(=O)NCC(=O)N[C@@H](C)C(=O)N[C@@H](Cc4ccccc4)C(=O)N[C@@H](CCCNC(=N)N)C(=O)N[C@@H](CCCCN)C(=O)N2)NC(=O)[C@H](CSSC[C@@H](C(=O)N[C@@H](CCCCN)C(=O)N[C@@H](Cc2ccc(O)cc2)C(=O)N[C@H](C(=O)N[C@@H](Cc2ccccc2)C(=O)O)C(C)C)NC(=O)[C@H](Cc2c[nH]c4ccccc24)NC(=O)[C@H](CCCNC(=N)N)NC(=O)[C@H](Cc2c[nH]cn2)NC(=O)[C@H]([C@@H](C)O)NC(=O)[C@H](CCCNC(=N)N)NC(=O)[C@H](CO)NC3=O)NC(=O)[C@H](CCCCN)NC(=O)[C@H](CC(=O)O)NC(=O)[C@H](Cc2c[nH]cn2)NC(=O)[C@H](CC(=O)O)NC(=O)[C@@H]2CCCN2C1=O` [compound 841], the IC50 at hNav1.3 (use-dependent block, hNav1.3) is more than 5000 nM; at hNav1.7 (use-dependent block, hNav1.7) it was more than 5000 nM; at hNav1.5 (setting [2]) it was more than 5000 nM.
As for `C#CCCC(=O)N[C@@H](CC(=O)O)C(=O)N[C@H]1CSSC[C@@H]2NC(=O)[C@@H]3CSSC[C@@H](C(=O)N[C@@H](CCCCN)C(=O)N[C@@H](Cc4ccc(O)cc4)C(=O)N[C@H](C(=O)N[C@@H](Cc4ccccc4)C(N)=O)C(C)C)NC(=O)[C@H](Cc4c[nH]c5ccccc45)NC(=O)[C@H](CCCCN)NC(=O)[C@H](Cc4c[nH]cn4)NC(=O)[C@H]([C@@H](C)O)NC(=O)[C@H](CCCNC(=N)N)NC(=O)[C@H](CO)NC(=O)[C@H](CSSC[C@H](NC(=O)[C@H](CCCCN)NC(=O)[C@H](CCCNC(=N)N)NC(=O)[C@H](CC(C)C)NC(=O)[C@H](CCC)NC(=O)CNC(=O)[C@H](CC(C)C)NC1=O)C(=O)N[C@@H]([C@@H](C)CC)C(=O)N1CCC[C@H]1C(=O)N[C@@H](CC(=O)O)C(=O)N[C@@H](CC)C(=O)N[C@@H](CC(=O)O)C(=O)N[C@@H](CCCCN)C(=O)N3)NC(=O)[C@H](C(C)C)NC(=O)[C@H](CC(C)C)NC(=O)[C@H](CC(N)=O)NC(=O)[C@@H]1CCCN1C(=O)[C@H](CCCNC(=N)N)NC2=O` [compound 760] (Pent4ynoyl-DCLG[Nva]LRKCIPD[Abu]DKCCRPNLVCSRTHKWCKYVF-NH2; disulfide 2-17, 9-23, 16-30), the IC50 was 250 nM at hNav1.3 (use-dependent block, hNav1.3); 190 nM on hNav1.7 (use-dependent block, hNav1.7); 35200 nM on hNav1.5 (setting [2]).
Regarding `CC[C@H](C)[C@@H]1NC(=O)[C@@H]2CSSC[C@@H]3NC(=O)[C@H](C(C)C)NC(=O)[C@H](CC(C)C)NC(=O)[C@H](CC(N)=O)NC(=O)[C@@H]4CCCN4C(=O)[C@H](CCCNC(=N)N)NC(=O)[C@H](CSSC[C@H](NC(=O)[C@@H](N)CC(=O)O)C(=O)N[C@@H](CC(C)C)C(=O)NCC(=O)N[C@@H](C)C(=O)N[C@@H](Cc4ccccc4)C(=O)N[C@@H](CCCNC(=N)N)C(=O)N[C@@H](CCCCN)C(=O)N2)NC(=O)[C@H](CSSC[C@@H](C(=O)N[C@@H](CCCCN)C(=O)N[C@@H](Cc2ccc(O)cc2)C(=O)N[C@H](C(=O)N[C@@H](Cc2ccccc2)C(=O)O)C(C)C)NC(=O)[C@H](Cc2c[nH]c4ccccc24)NC(=O)[C@H](C)NC(=O)[C@H](Cc2c[nH]cn2)NC(=O)[C@H]([C@@H](C)O)NC(=O)[C@H](CCCNC(=N)N)NC(=O)[C@H](CO)NC3=O)NC(=O)[C@H](CCCCN)NC(=O)[C@H](CC(=O)O)NC(=O)[C@H](CC(N)=O)NC(=O)[C@H](CC(=O)O)NC(=O)[C@@H]2CCCN2C1=O` [compound 824] (H-DCLGAFRKCIPDNDKCCRPNLVCSRTHAWCKYVF-OH; disulfide 2-17, 9-23, 16-30), the IC50 at hNav1.3 (use-dependent block, hNav1.3) was more than 5000 nM; on hNav1.7 (use-dependent block, hNav1.7) it was more than 5000 nM; on hNav1.5 (setting [2]), more than 5000 nM.
Consider `CC[C@H](C)[C@@H]1NC(=O)[C@@H]2CSSC[C@@H]3NC(=O)[C@H](C(C)C)NC(=O)[C@H](CC(C)C)NC(=O)[C@H](CC(N)=O)NC(=O)[C@@H]4CCCN4C(=O)[C@H](CCCNC(=N)N)NC(=O)[C@H](CSSC[C@H](NC(=O)[C@@H](N)CC(=O)O)C(=O)N[C@@H](CC(C)C)C(=O)NCC(=O)N[C@@H](Cc4ccccc4)C(=O)N[C@@H](CCSC)C(=O)N[C@@H](CCCNC(=N)N)C(=O)N[C@@H](CCCCN)C(=O)N2)NC(=O)[C@H](CSSC[C@@H](C(=O)N[C@@H](CCCCN)C(=O)N[C@H](C(=O)N[C@H](C(=O)N[C@@H](Cc2ccccc2)C(N)=O)C(C)C)c2ccccc2)NC(=O)[C@H](Cc2c[nH]c4ccccc24)NC(=O)[C@H](CCCCN)NC(=O)[C@H](Cc2c[nH]cn2)NC(=O)[C@H]([C@@H](C)O)NC(=O)[C@H](CCCNC(=N)N)NC(=O)[C@H](CO)NC3=O)NC(=O)[C@H](CCCCN)NC(=O)[C@H](CC(=O)O)NC(=O)[C@H](CC(N)=O)NC(=O)[C@H](CC(=O)O)NC(=O)[C@@H]2CCCN2C1=O` [compound 374] (H-DCLGFMRKCIPDNDKCCRPNLVCSRTHKWCK[Phg]VF-NH2; disulfide 2-17, 9-23, 16-30), for which the IC50 at hNav1.3 (Table 25, use, […]) amounted to 100 nM; at hNav1.7 (Table 25, use, […]) it was 140 nM; on hNav1.5 (Table 25, IonWorks Quattro, use, […], read-out: IWQ Use Nav1.5) it was 7060 nM.
